pIC50: −log10 of the molar value. Calls of active or inactive are those of the source.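 The calls were made as follows: active = mean IC50 for reducing PEG3 promoter reporter signal at or below a set limit, with IC50 above the limit in both counter screens; inactive = the rest, including counter screen hits.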

The source of these data is PubChem BioAssay AID624167 (Sanford-Burnham Center for Chemical Genomics, 2012).

Holding throughout (assay): inhibition of PEG-3 promoter-driven reporter – cell-based, HeLa, luciferase, CREF/GAPDH counter-screen panel, dose response (AID 624167)
Experiment [1] concerns the target PEG-3 (UniProt Q6IN02). The note with it: HeLa PEG-Prom luciferase reporter, overnight, CREF/GAPDH counter-screens, mean of runs. On the technique in general: A reporter such as luciferase makes a cellular process visible.
The test system of experiment [2] is PEG-3. The note with it: HeLa PEG-Prom luciferase reporter, overnight, CREF/GAPDH counter-screens.
The next experiment relates to Rat fibroblasts (CREF). The note with it: CREF/GAPDH counter-screens. (Counterscreens check selectivity or assay interference.)
[3] abbreviates: run 1, dose range 1, individual replicate IC50 per panel.
[4] abbreviates: run 2, dose range 1, individual replicate IC50 per panel.

Chain of PEG-3 (UniProt Q6IN02) (Q6IN02 whole entry, looked up): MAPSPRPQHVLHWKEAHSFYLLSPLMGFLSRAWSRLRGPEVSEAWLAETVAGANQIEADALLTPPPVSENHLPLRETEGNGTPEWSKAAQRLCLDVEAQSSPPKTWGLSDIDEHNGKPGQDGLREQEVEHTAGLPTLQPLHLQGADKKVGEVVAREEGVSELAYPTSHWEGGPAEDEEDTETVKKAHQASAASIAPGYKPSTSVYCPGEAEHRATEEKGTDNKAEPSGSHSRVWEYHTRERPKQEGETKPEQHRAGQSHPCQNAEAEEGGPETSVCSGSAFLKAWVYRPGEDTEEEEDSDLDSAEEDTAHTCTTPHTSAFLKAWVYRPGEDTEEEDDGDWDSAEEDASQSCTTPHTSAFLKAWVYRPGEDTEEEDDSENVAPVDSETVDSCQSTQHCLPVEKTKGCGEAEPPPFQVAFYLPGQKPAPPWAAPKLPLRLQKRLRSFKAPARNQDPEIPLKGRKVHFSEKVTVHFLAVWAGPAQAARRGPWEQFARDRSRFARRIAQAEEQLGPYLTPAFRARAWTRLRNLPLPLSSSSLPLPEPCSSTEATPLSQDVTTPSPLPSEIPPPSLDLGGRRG

As for `CCOc1ccc(C(=O)O/N=C(\N)c2ccccn2)cc1`, the pIC50 – broadly, the IC50 on a negative log10 scale, so that one unit is a factor of ten – on PEG-3 [1] was 5.47; in the experiment with PEG-3 [2] (setting [3]) it was 5.30; in the experiment with PEG-3 [2] (setting [4]), 5.75; in the experiment on Rat fibroblasts (CREF) (mean of runs), 5.65; in the experiment with Rat fibroblasts (CREF) (setting [3]) it was 5.63; in the experiment with Rat fibroblasts (CREF) (setting [4]) it was 5.67.

`O=c1c(Cl)c(N2CCCCC2)cnn1-c1nc2ccccc2[nH]1`: the pIC50 is 5.49 on PEG-3 [1]; 5.52 in the experiment on PEG-3 [2] (setting [3]); 5.46 in the experiment on PEG-3 [2] (setting [4]); 6.15 in the experiment with Rat fibroblasts (CREF) (mean of runs); 6.09 in the experiment with Rat fibroblasts (CREF) (setting [3]); 6.21 with Rat fibroblasts (CREF) (setting [4]).

`COCCn1c(C)cc(C(=O)CSc2nnc(C)s2)c1C`: the negative-log IC50 (pIC50) on PEG-3 [1] was 5.03; in the experiment with PEG-3 [2] (setting [3]), 5.26; in the experiment with PEG-3 [2] (setting [4]) it was 4.87; in the experiment with Rat fibroblasts (CREF) (mean of runs) it was 5.06; in the experiment with Rat fibroblasts (CREF) (setting [3]), 5.17; with Rat fibroblasts (CREF) (setting [4]), 4.97.

Consider `O=C(N/N=C/c1cccs1)c1n[nH]c2c1CCCC2`, for which the negative-log IC50 (pIC50) on PEG-3 [1] was 5.28; in the experiment with PEG-3 [2] (setting [3]) it was 5.46; in the experiment on PEG-3 [2] (setting [4]) it was 5.16; with Rat fibroblasts (CREF) (mean of runs), 5.22; with Rat fibroblasts (CREF) (setting [3]) it was 5.29; in the experiment with Rat fibroblasts (CREF) (setting [4]), 5.16.

Regarding `Cc1cc(/C=N/Nc2ncnc(N)c2[N+](=O)[O-])c(C)n1-c1ccccc1`, the pIC50 at PEG-3 [1] was 4.96; with PEG-3 [2] (setting [3]), 5.01; in the experiment on PEG-3 [2] (setting [4]), 4.92; with Rat fibroblasts (CREF) (mean of runs) it was 5.75; in the experiment on Rat fibroblasts (CREF) (setting [3]), 5.81; with Rat fibroblasts (CREF) (setting [4]) it was 5.69.

For `Cc1cc(N2CCN(C)CC2)ccc1NC(=O)c1c2c(nc3ccccc13)CCN(Cc1ccccc1)C2`, the pIC50 is 5.05 at PEG-3 [1]; 5.25 in the experiment with PEG-3 [2] (setting [3]); 4.91 with PEG-3 [2] (setting [4]); 5.52 with Rat fibroblasts (CREF) (mean of runs); 5.61 in the experiment with Rat fibroblasts (CREF) (setting [3]); 5.45 with Rat fibroblasts (CREF) (setting [4]).

As for `Brc1ccc(N=Nc2ccc3ccccc3n2)cc1`, the pIC50 at PEG-3 [1] is 5.21; in the experiment on PEG-3 [2] (setting [3]) it was 5.24; with PEG-3 [2] (setting [4]) it was 5.19; in the experiment with Rat fibroblasts (CREF) (mean of runs), 6.34; in the experiment with Rat fibroblasts (CREF) (setting [3]), 6.67; with Rat fibroblasts (CREF) (setting [4]) it was 6.16.

In the case of `O=C(NCCc1ccccc1)c1ccc2c(c1)OCO2`, the pIC50 is 5.31 on PEG-3 [1]; 5.40 in the experiment on PEG-3 [2] (setting [3]); 5.23 in the experiment with PEG-3 [2] (setting [4]); 5.20 in the experiment on Rat fibroblasts (CREF) (mean of runs); 5.16 in the experiment with Rat fibroblasts (CREF) (setting [3]); 5.25 in the experiment with Rat fibroblasts (CREF) (setting [4]).

Take `O=C(Cn1ncc(Cl)c(Cl)c1=O)N1CCc2ccccc21`: the pIC50 on PEG-3 [1] is 5.06; in the experiment with PEG-3 [2] (setting [3]), 5.00; in the experiment on PEG-3 [2] (setting [4]), 5.13; in the experiment with Rat fibroblasts (CREF) (mean of runs) it was 4.84; with Rat fibroblasts (CREF) (setting [3]), 4.73; with Rat fibroblasts (CREF) (setting [4]) it was 5.00.

As to `Cc1ccc(C(=O)Nc2cnc3ccccc3c2)cc1`, the negative logarithm of the IC50 (pIC50) on PEG-3 [1] is 6.30; in the experiment with PEG-3 [2] (setting [3]), 6.38; in the experiment with PEG-3 [2] (setting [4]), 6.24; in the experiment on Rat fibroblasts (CREF) (mean of runs) it was 5.41; in the experiment with Rat fibroblasts (CREF) (setting [3]), 5.45; in the experiment on Rat fibroblasts (CREF) (setting [4]) it was 5.37.

On to `Cc1ccc(-n2[nH]c(=O)c(-c3ccccn3)c2C)cc1`, for which the pIC50 at PEG-3 [1] is 5.52; in the experiment on PEG-3 [2] (setting [3]) it was 5.58; with PEG-3 [2] (setting [4]), 5.47; in the experiment with Rat fibroblasts (CREF) (mean of runs), 4.95; in the experiment with Rat fibroblasts (CREF) (setting [3]), 5.14; in the experiment with Rat fibroblasts (CREF) (setting [4]) it was 4.82.

Turning to `Cc1ccc2oc(/N=C(\N)NC(=O)C(C)(C)C)nc2c1`, the IC50 entry at PEG-3 [1] was “inactive”. In addition, the negative-log IC50 (pIC50) in the experiment on PEG-3 [2] (setting [3]) is 6.14; with PEG-3 [2] (setting [4]), less than 4.00; in the experiment on Rat fibroblasts (CREF) (mean of runs), 5.52; with Rat fibroblasts (CREF) (setting [3]) it was 6.39; in the experiment on Rat fibroblasts (CREF) (setting [4]) it was 5.25.

On to `Cc1ccccc1-c1nc(-c2ccccn2)no1`, for which the pIC50 at PEG-3 [1] was 5.41; with PEG-3 [2] (setting [3]), 5.53; in the experiment with PEG-3 [2] (setting [4]), 5.32; in the experiment on Rat fibroblasts (CREF) (mean of runs) it was 5.88; with Rat fibroblasts (CREF) (setting [3]) it was 5.97; with Rat fibroblasts (CREF) (setting [4]), 5.80.

Turning to `Cc1ccc2nc(C)cc(Nc3ccc([N+](=O)[O-])cc3)c2c1`, the pIC50 at PEG-3 [1] is 5.10; in the experiment with PEG-3 [2] (setting [3]) it was 4.97; in the experiment on PEG-3 [2] (setting [4]), 5.27; in the experiment on Rat fibroblasts (CREF) (mean of runs), 5.07; in the experiment on Rat fibroblasts (CREF) (setting [3]), 5.07; with Rat fibroblasts (CREF) (setting [4]) it was 5.07.

On to `CCN(CCCl)c1cc(CN(C)C)cc(NC(=O)c2ccc(C(=O)Nc3cc(CN(C)C)cc(N(CC)CCCl)c3)cc2)c1`, for which the pIC50 was 5.95 on PEG-3 [1]; 5.80 with PEG-3 [2] (setting [3]); 6.19 in the experiment with PEG-3 [2] (setting [4]); 5.12 in the experiment with Rat fibroblasts (CREF) (mean of runs); 4.85 in the experiment with Rat fibroblasts (CREF) (setting [3]); 6.10 in the experiment on Rat fibroblasts (CREF) (setting [4]).

Consider `CCC(=O)NC(c1cccs1)c1cc(Cl)c2cccnc2c1O` (configuration not stated), for which the pIC50 at PEG-3 [1] was 5.33; in the experiment on PEG-3 [2] (setting [3]), 5.30; in the experiment on PEG-3 [2] (setting [4]), 5.36; with Rat fibroblasts (CREF) (mean of runs) it was 6.07; in the experiment on Rat fibroblasts (CREF) (setting [3]), more than 4.00; in the experiment with Rat fibroblasts (CREF) (setting [4]), 6.07.

Consider `CN=c1scc(-c2ccccc2F)n1/N=C/c1ccc[nH]1`, for which the IC50 entry at PEG-3 [1] is “inactive”. The pIC50 is 5.31 with PEG-3 [2] (setting [3]); less than 4.00 with PEG-3 [2] (setting [4]); 5.34 in the experiment on Rat fibroblasts (CREF) (mean of runs); 5.36 with Rat fibroblasts (CREF) (setting [3]); 5.33 with Rat fibroblasts (CREF) (setting [4]).
